# In patent US20250257086A1, “EGFR DEGRADATION AGENT” (Beijing Tide Pharmaceutical Co., Ltd., priority 2022, published 2025):
# Target: Ba/F3 (EGFR^L858R/T790M/C797S) cells (Homo sapiens, UniProt P00533, T790M/C797S/L858R, cells depend on it)
# Experiment: Antiproliferative activity on Ba/F3 (EGFR L858R/T790M/C797S) cells (CTG)
# Format: cell-based
# Settings: 72h incubation, CTG luminescence, read-out: IC50 (nM), antiproliferative activity
# Method: 30 nL of the compound dilution was added to a 384-well plate by Echo (Labcyte, Echo550).
# The percent inhibition rate (% inhibition) was calculated by the following formula
# [formula] • LUMcmpd: Luminescence value of assay compound. • LUMpositive: Average LUM value of positive drug with a concentration of 10 μM. • LUMvehicle: Average LUM value of negative control group without drug treatment.
# The nonlinear regression curve (dose response-variable slope) between the value of inhibition rate (%) and the logarithm of compound concentration was fitted with graphpad prism 8.0, the effect dose curve of compound was drawn, and the IC50 value was calculated.
# Y=Bottom+(Top−Bottom)/(1+10^((Log IC50−X)*HillSlope)) • X-axis: logarithm of compound concentration; Y axis: inhibition rate (% inhibition).
# Chain of Ba/F3 (EGFR^L858R/T790M/C797S) cells (P00533 whole entry T790M/C797S/L858R): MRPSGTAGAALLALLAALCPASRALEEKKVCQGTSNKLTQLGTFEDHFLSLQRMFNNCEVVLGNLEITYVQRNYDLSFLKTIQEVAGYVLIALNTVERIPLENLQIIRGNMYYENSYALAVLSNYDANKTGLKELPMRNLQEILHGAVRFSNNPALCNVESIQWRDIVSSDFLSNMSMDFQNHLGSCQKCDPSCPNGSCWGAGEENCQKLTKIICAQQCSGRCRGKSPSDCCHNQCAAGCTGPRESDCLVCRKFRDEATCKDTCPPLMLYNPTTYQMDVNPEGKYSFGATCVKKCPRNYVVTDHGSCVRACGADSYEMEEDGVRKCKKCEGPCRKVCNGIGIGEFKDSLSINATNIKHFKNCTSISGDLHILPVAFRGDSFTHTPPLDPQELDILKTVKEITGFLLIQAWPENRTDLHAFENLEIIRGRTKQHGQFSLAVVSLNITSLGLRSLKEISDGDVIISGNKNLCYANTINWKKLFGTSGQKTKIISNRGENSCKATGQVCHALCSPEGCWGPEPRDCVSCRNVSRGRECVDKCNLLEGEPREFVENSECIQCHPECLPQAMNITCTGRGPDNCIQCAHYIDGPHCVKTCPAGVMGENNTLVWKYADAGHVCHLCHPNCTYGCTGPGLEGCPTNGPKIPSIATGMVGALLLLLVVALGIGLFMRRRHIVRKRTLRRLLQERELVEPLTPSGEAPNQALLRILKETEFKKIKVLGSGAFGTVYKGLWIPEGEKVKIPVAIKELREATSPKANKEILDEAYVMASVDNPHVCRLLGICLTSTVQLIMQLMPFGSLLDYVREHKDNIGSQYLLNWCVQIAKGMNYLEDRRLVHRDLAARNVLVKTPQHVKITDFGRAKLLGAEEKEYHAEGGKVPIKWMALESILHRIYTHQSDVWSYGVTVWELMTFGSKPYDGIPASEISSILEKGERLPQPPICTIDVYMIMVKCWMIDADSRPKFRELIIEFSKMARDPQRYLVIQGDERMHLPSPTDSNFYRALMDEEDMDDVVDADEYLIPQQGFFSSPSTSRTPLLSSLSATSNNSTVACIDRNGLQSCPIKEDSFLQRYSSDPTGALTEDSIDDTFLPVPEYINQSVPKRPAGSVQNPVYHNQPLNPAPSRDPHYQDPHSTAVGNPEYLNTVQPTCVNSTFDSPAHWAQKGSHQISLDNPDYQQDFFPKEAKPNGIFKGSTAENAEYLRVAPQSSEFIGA
row,Structure (SMILES),GI50 [nM]
1,"COc1cc(N2CCC(N3CCN(CCCC#Cc4cccc5c4CN(C4CCC(=O)NC4=O)C5=O)CC3)CC2)c(NC(=O)/C=C/c2cccs2)cc1Nc1ncc(Cl)c(Nc2ccccc2P(C)(C)=O)n1 (centres unmarked) [Compound D583, (E)-N-(5-((5-chloro-4-((2-(dimethylphosphoryl)phenyl)amino)pyrimidin-2-yl)amino)-2-(4-(4-(5-(2-(2,6-dioxopiperidin-3-yl)-1-oxoisoindolin-4-yl)pent-4-yn-1-yl)piperazin-1-yl)piperidin-1-yl)-4-methoxyphenyl)-3-(thiophen-2-yl)acrylamide]",45.6
2,"COc1cc(N2CCC(N3CCN(CCCC#Cc4cccc5c4CN(C4CCC(=O)NC4=O)C5=O)CC3)CC2)c(NC(=O)/C=C/CN2CCCCC2)cc1Nc1ncc(Cl)c(Nc2ccccc2P(C)(C)=O)n1 (centres unmarked) [Compound D584, (E)-N-(5-((5-chloro-4-((2-(dimethylphosphoryl)phenyl)amino)pyrimidin-2-yl)amino)-2-(4-(4-(5-(2-(2,6-dioxopiperidin-3-yl)-1-oxoisoindolin-4-yl)pent-4-yn-1-yl)piperazin-1-yl)piperidin-1-yl)-4-methoxyphenyl)-4-(piperidin-1-yl)but-2-enamide]",216
3,"COc1cc(N2CCC(N3CCN(CCCC#Cc4cccc5c4CN(C4CCC(=O)NC4=O)C5=O)CC3)CC2)c(NC(=O)/C=C/C(F)(F)F)cc1Nc1ncc(Cl)c(Nc2ccccc2P(C)(C)=O)n1 (centres unmarked) [Compound D596, N-(5-((5-chloro-4-((2-(dimethylphosphoryl)phenyl)amino)pyrimidin-2-yl)amino)-2-(4-(4-(5-(2-(2,6-dioxopiperidin-3-yl)-1-oxoisoindolin-4-yl)pent-4-yn-1-yl)piperazin-1-yl)piperidin-1-yl)-4-methoxyphenyl)-4,4,4-trifluorobut-2-enamide]",31.7
4,"C=C(Cl)C(=O)Nc1cc(Nc2ncc(Cl)c(Nc3ccccc3P(C)(C)=O)n2)c(OC)cc1N1CCC(N2CCN(CCCC#Cc3cccc4c3CN(C3CCC(=O)NC3=O)C4=O)CC2)CC1 (centres unmarked) [Compound D597, 2-chloro-N-(5-((5-chloro-4-((2-(dimethylphosphoryl)phenyl)amino)pyrimidin-2-yl)amino)-2-(4-(4-(5-(2-(2,6-dioxopiperidin-3-yl)-1-oxoisoindolin-4-yl)pent-4-yn-1-yl)piperazin-1-yl)piperidin-1-yl)-4-methoxyphenyl)acrylamide]",460
5,"C=CC(=O)Nc1cc(Nc2ncc(Cl)c(Nc3ccccc3P(C)(C)=O)n2)c(OC)cc1N1CCC(N2CCN(CCCCC#Cc3ccc4c(c3)CN(C3CCC(=O)NC3=O)C4=O)CC2)CC1 (centres unmarked) [Compound D601, N-(5-((5-chloro-4-((2-(dimethylphosphoryl)phenyl)amino)pyrimidin-2-yl)amino)-2-(4-(4-(6-(2-(2,6-dioxopiperidin-3-yl)-1-oxoisoindolin-5-yl)hex-5-yn-1-yl)piperazin-1-yl)piperidin-1-yl)-4-methoxyphenyl)acrylamide]",144
6,"CC#CC(=O)Nc1cc(Nc2ncc(Cl)c(Nc3ccccc3P(C)(C)=O)n2)c(OC)cc1N1CCC(N2CCN(CCCCC#Cc3ccc4c(c3)CN(C3CCC(=O)NC3=O)C4=O)CC2)CC1 (centres unmarked) [Compound D602, N-(5-((5-chloro-4-((2-(dimethylphosphoryl)phenyl)amino)pyrimidin-2-yl)amino)-2-(4-(4-(6-(2-(2,6-dioxopiperidin-3-yl)-1-oxoisoindolin-5-yl)hex-5-yn-1-yl)piperazin-1-yl)piperidin-1-yl)-4-methoxyphenyl)but-2-ynamide]",57.3
7,"COc1cc(N2CCC(N3CCN(CCCC#Cc4cccc5c4CN(C4CCC(=O)NC4=O)C5=O)CC3)CC2)c(NC(=O)/C=C/C(F)(F)F)cc1Nc1ncc(Br)c(Nc2ccccc2P(C)(C)=O)n1 (centres unmarked) [Compound D603, (E)-N-(5-((5-bromo-4-((2-(dimethylphosphoryl)phenyl)amino)pyrimidin-2-yl)amino)-2-(4-(4-(5-(2-(2,6-dioxopiperidin-3-yl)-1-oxoisoindolin-4-yl)pent-4-yn-1-yl)piperazin-1-yl)piperidin-1-yl)-4-methoxyphenyl)-4,4,4-trifluorobut-2-enamide]",37.1
8,"CC#CC(=O)Nc1cc(Nc2ncc(Br)c(Nc3ccccc3P(C)(C)=O)n2)c(OC)cc1N1CCC(N2CCN(CCCC#Cc3cccc4c3CN(C3CCC(=O)NC3=O)C4=O)CC2)CC1 (centres unmarked) [Compound D604, N-(5-((5-bromo-4-((2-(dimethylphosphoryl)phenyl)amino)pyrimidin-2-yl)amino)-2-(4-(4-(5-(2-(2,6-dioxopiperidin-3-yl)-1-oxoisoindolin-4-yl)pent-4-yn-1-yl)piperazin-1-yl)piperidin-1-yl)-4-methoxyphenyl)but-2-ynamide]",44.4

# Further lines, results first:
row,GI50 [nM],Structure (SMILES)
1,46.7,"COc1cc(N2CCC(N3CCN(CCCCC#Cc4cccc5c4CN(C4CCC(=O)NC4=O)C5=O)CC3)CC2)c(NC(=O)/C=C/C(F)(F)F)cc1Nc1ncc(Cl)c(Nc2ccccc2P(C)(C)=O)n1 (centres unmarked) [Compound D620, N-(5-((5-chloro-4-((2-(dimethylphosphoryl)phenyl)amino)pyrimidin-2-yl)amino)-2-(4-(4-(6-(2-(2,6-dioxopiperidin-3-yl)-1-oxoisoindolin-4-yl)hex-5-yn-1-yl)piperazin-1-yl)piperidin-1-yl)-4-methoxyphenyl)-4,4,4-trifluorobut-2-enamide]"
2,258,"COc1cc(N2CCC(N3CCN(CCCC#Cc4ccc5c(c4)CN(C4CCC(=O)NC4=O)C5=O)CC3)CC2)c(NC(=O)/C=C/C(F)(F)F)cc1Nc1ncc(Cl)c(Nc2ccccc2P(C)(C)=O)n1 (centres unmarked) [Compound D622, N-(5-((5-chloro-4-((2-(dimethylphosphoryl)phenyl)amino)pyrimidin-2-yl)amino)-2-(4-(4-(5-(2-(2,6-dioxopiperidin-3-yl)-1-oxoisoindolin-5-yl)pent-4-yn-1-yl)piperazin-1-yl)piperidin-1-yl)-4-methoxyphenyl)-4,4,4-trifluorobut-2-enamide]"
3,94.3,"COc1cc(N2CCC(N3CCN(CCCCC#Cc4ccc5c(c4)CN(C4CCC(=O)NC4=O)C5=O)CC3)CC2)c(NC(=O)/C=C/C(F)(F)F)cc1Nc1ncc(Cl)c(Nc2ccccc2P(C)(C)=O)n1 (centres unmarked) [Compound D623, N-(5-((5-chloro-4-((2-(dimethylphosphoryl)phenyl)amino)pyrimidin-2-yl)amino)-2-(4-(4-(6-(2-(2,6-dioxopiperidin-3-yl)-1-oxoisoindolin-5-yl)hex-5-yn-1-yl)piperazin-1-yl)piperidin-1-yl)-4-methoxyphenyl)-4,4,4-trifluorobut-2-enamide]"
4,325,"COc1cc(N2CCC(N3CCN(CCCC#Cc4cccc5c4CN(C4CCC(=O)NC4=O)C5=O)CC3)CC2)c(NC(=O)C#CCO)cc1Nc1ncc(Cl)c(Nc2ccccc2P(C)(C)=O)n1 (centres unmarked) [Compound D628, N-(5-((5-chloro-4-((2-(dimethylphosphoryl)phenyl)amino)pyrimidin-2-yl)amino)-2-(4-(4-(5-(2-(2,6-dioxopiperidin-3-yl)-1-oxoisoindolin-4-yl)pent-4-yn-1-yl)piperazin-1-yl)piperidin-1-yl)-4-methoxyphenyl)-4-hydroxybut-2-ynamide]"
5,48.1,"CCCC#CC(=O)Nc1cc(Nc2ncc(Cl)c(Nc3ccccc3P(C)(C)=O)n2)c(OC)cc1N1CCC(N2CCN(CCCC#Cc3cccc4c3CN(C3CCC(=O)NC3=O)C4=O)CC2)CC1 (centres unmarked) [Compound D631, N-(5-((5-chloro-4-((2-(dimethylphosphoryl)phenyl)amino)pyrimidin-2-yl)amino)-2-(4-(4-(5-(2-(2,6-dioxopiperidin-3-yl)-1-oxoisoindolin-4-yl)pent-4-yn-1-yl)piperazin-1-yl)piperidin-1-yl)-4-methoxyphenyl)hex-2-ynamide]"
6,56.5,"COc1cc(N2CCC(N3CCN(CCCC#Cc4cccc5c4CN(C4CCC(=O)NC4=O)C5=O)CC3)CC2)c(NC(=O)C=C(C)C)cc1Nc1ncc(Cl)c(Nc2ccccc2P(C)(C)=O)n1 (centres unmarked) [Compound D633, N-(5-((5-chloro-4-((2-(dimethylphosphoryl)phenyl)amino)pyrimidin-2-yl)amino)-2-(4-(4-(5-(2-(2,6-dioxopiperidin-3-yl)-1-oxoisoindolin-4-yl)pent-4-yn-1-yl)piperazin-1-yl)piperidin-1-yl)-4-methoxyphenyl)-3-methylbut-2-enamide]"
7,10.3,"CC#CC(=O)Nc1cc(Nc2ncc(Cl)c(Nc3ccccc3P(C)(C)=O)n2)ccc1N1CCC(N2CCN(CCCC#Cc3cccc4c3CN(C3CCC(=O)NC3=O)C4=O)CC2)CC1 (centres unmarked) [Compound D665, N-(5-((5-chloro-4-((2-(dimethylphosphoryl)phenyl)amino)pyrimidin-2-yl)amino)-2-(4-(4-(5-(2-(2,6-dioxopiperidin-3-yl)-1-oxoisoindolin-4-yl)pent-4-yn-1-yl)piperazin-1-yl)piperidin-1-yl)phenyl)but-2-ynamide]"
8,13.7,"C=C(F)C(=O)Nc1cc(Nc2ncc(Cl)c(Nc3ccccc3P(C)(C)=O)n2)ccc1N1CCC(N2CCN(CCCC#Cc3cccc4c3CN(C3CCC(=O)NC3=O)C4=O)CC2)CC1 (centres unmarked) [Compound D666, N-(5-((5-chloro-4-((2-(dimethylphosphoryl)phenyl)amino)pyrimidin-2-yl)amino)-2-(4-(4-(5-(2-(2,6-dioxopiperidin-3-yl)-1-oxoisoindolin-4-yl)pent-4-yn-1-yl)piperazin-1-yl)piperidin-1-yl)phenyl)-2-fluoroacrylamide]"
9,18.1,"CP(C)(=O)c1ccccc1Nc1nc(Nc2ccc(N3CCC(N4CCN(CCCC#Cc5cccc6c5CN(C5CCC(=O)NC5=O)C6=O)CC4)CC3)c(NC(=O)/C=C/C(F)(F)F)c2)ncc1Cl (centres unmarked) [Compound D667, (E)-N-(5-((5-chloro-4-((2-(dimethylphosphoryl)phenyl)amino)pyrimidin-2-yl)amino)-2-(4-(4-(5-(2-(2,6-dioxopiperidin-3-yl)-1-oxoisoindolin-4-yl)pent-4-yn-1-yl)piperazin-1-yl)piperidin-1-yl)phenyl)-4,4,4-trifluorobut-2-enamide]"
